The text below walks through data of PMC6361133, “A chemical-genetics approach to study the role of atypical Protein Kinase C in Drosophila” (Development (Cambridge, England), 2019).

This assay concerns the target atypical Protein Kinase C (aPKC), analogue-sensitive aPKC^as4 (Drosophila melanogaster, UniProt A1Z9X0, I342A/T405A). In words: in vitro […]-ATP peptide kinase assay with immunoprecipitated FLAG-aPKC ([…] ATP, […] MgCl2). Type of assay: biochemical.

Each structure is given as a SMILES string.

Chain of atypical Protein Kinase C (aPKC), analogue-sensitive aPKC^as4 (A1Z9X0 whole entry I342A/T405A): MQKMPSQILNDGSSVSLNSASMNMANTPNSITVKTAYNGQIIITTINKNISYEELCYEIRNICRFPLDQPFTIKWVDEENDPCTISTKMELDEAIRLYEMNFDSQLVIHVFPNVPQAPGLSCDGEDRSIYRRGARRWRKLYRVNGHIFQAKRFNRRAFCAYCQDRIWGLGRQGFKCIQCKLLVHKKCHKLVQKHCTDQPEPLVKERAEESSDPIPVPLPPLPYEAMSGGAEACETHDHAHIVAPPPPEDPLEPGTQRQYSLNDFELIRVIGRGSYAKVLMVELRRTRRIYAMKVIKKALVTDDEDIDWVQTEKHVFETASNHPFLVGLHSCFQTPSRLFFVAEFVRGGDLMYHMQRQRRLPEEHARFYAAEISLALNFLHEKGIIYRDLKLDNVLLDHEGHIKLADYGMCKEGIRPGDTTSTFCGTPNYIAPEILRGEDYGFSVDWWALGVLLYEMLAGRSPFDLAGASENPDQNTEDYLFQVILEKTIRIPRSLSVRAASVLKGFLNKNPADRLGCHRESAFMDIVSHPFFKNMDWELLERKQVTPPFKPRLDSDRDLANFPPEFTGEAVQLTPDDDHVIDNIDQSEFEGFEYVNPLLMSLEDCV

One may read the IC50 as the point on the concentration scale where inhibition reaches its midpoint. `CC(C)(C)n1nc(-c2cccc3ccccc23)c2c(N)ncnc21` [1NA-PP1]: the IC50 is approximately 100 nM.
